Tested on: normal human lung fibroblasts
Test: Ribosomal profiling: translational efficiency in TGFβ-treated fibroblasts
Format: cell-based
Details: TGFβ-treated fibroblasts
Experimental: Ribosomal profiling allows for measurement of changes in transcription and translation on a genome-wide basis accompanying TGFβ-dependent transformation of fibroblasts to myofibroblasts. Ribosomal profiles of the TGFβ-treated fibroblasts from Example 1 (about 6×10^6 cells/10 cm plate) were prepared and analyzed for changes in translational efficiencies with respect to potential disease-associated cellular changes accompanying this TGFβ-induced transformation.
Briefly, cells were washed with cold PBS supplemented with cycloheximide and lysed with 1× mammalian cell lysis buffer for 10 minutes on ice. Lysates were clarified by centrifugation for 10 minutes at 14,000 rpm and supernatants were collected. Cell lysates were processed to generate ribosomal protected fragments and total mRNA according to the instructions included with the ARTseq Ribosome Profiling Kit (Illumina, San Diego, Calif.). Sequencing of total RNA (RNA) and of ribosome-protected fragments of RNA (RPF) was carried out using RNA-Seq methodology according to the manufacturer's instructions (Illumina). To analyze the ribosomal profiles, RNA-Seq reads were processed with tools from the FASTX-Toolkit (fastq_quality_trimmer, fastx_clipper and fastx_trimmer). Unprocessed and processed reads were evaluated for a variety of quality measures using FastQC, and processed reads were mapped to the human genome using TopHat (see, e.g., Trapnell et al., Bioinformatics 25:1105, 2009). Gene-by-gene assessment of the number of fragments strictly and uniquely mapping to the coding region of each gene was conducted using HTSeq-count, a component of the HTSeq package. […] Genes with low counts in either RPF or RNA were excluded from differential analyses. Pathway and network analyses of differential data were conducted using Ingenuity Pathway Analysis (IPA).

## CC(C)n1nc(-c2cc3cc(O)ccc3[nH]2)c2c(N)ncnc21 [PP242]
Gene RPS6KA5 (ENSG00000100784)
  effect in renormalizing the translational profile of the gene: + (+ = 0.9 to 1.5)
Gene RPS7 (ENSG00000171863)
  effect in renormalizing the translational profile of the gene: − (− = <0.9)
Gene RPS8 (ENSG00000142937)
  effect in renormalizing the translational profile of the gene: − (− = <0.9)
Gene RPS9 (ENSG00000170889)
  effect in renormalizing the translational profile of the gene: − (− = <0.9)
Gene RPS10 (ENSG00000124614)
  effect in renormalizing the translational profile of the gene: − (− = <0.9)
Gene RPS11 (ENSG00000142534)
  effect in renormalizing the translational profile of the gene: − (− = <0.9)
Gene RPS12 (ENSG00000112306)
  effect in renormalizing the translational profile of the gene: − (− = <0.9)
Gene RPS13 (ENSG00000110700)
  effect in renormalizing the translational profile of the gene: − (− = <0.9)
Gene RPS14 (ENSG00000164587)
  effect in renormalizing the translational profile of the gene: − (− = <0.9)
Gene RPS15 (ENSG00000115268)
  effect in renormalizing the translational profile of the gene: + (+ = 0.9 to 1.5)
Gene RPS15A (ENSG00000134419)
  effect in renormalizing the translational profile of the gene: + (+ = 0.9 to 1.5)
Gene RPS16 (ENSG00000105193)
  effect in renormalizing the translational profile of the gene: − (− = <0.9)
Gene RPS18 (ENSG00000231500)
  effect in renormalizing the translational profile of the gene: + (+ = 0.9 to 1.5)
Gene RPS19 (ENSG00000105372)
  effect in renormalizing the translational profile of the gene: − (− = <0.9)
Gene RPS20 (ENSG00000008988)
  effect in renormalizing the translational profile of the gene: − (− = <0.9)
Gene RPS21 (ENSG00000171858)
  effect in renormalizing the translational profile of the gene: − (− = <0.9)
Gene RPS23 (ENSG00000186468)
  effect in renormalizing the translational profile of the gene: − (− = <0.9)
Gene RPS24 (ENSG00000138326)
  effect in renormalizing the translational profile of the gene: − (− = <0.9)
Gene RPS25 (ENSG00000118181)
  effect in renormalizing the translational profile of the gene: − (− = <0.9)
Gene RPS26 (ENSG00000197728)
  effect in renormalizing the translational profile of the gene: − (− = <0.9)
Gene RPS27 (ENSG00000177954)
  effect in renormalizing the translational profile of the gene: − (− = <0.9)
Gene RPS27A (ENSG00000143947)
  effect in renormalizing the translational profile of the gene: − (− = <0.9)
Gene RPS28 (ENSG00000233927)
  effect in renormalizing the translational profile of the gene: + (+ = 0.9 to 1.5)
Gene RPS29 (ENSG00000213741)
  effect in renormalizing the translational profile of the gene: + (+ = 0.9 to 1.5)
Gene RPSA (ENSG00000168028)
  effect in renormalizing the translational profile of the gene: − (− = <0.9)
Gene RTN2 (ENSG00000125744)
  effect in renormalizing the translational profile of the gene: − (− = <0.9)
Gene SEMA3A (ENSG00000075213)
  effect in renormalizing the translational profile of the gene: − (− = <0.9)
Gene SGIP1 (ENSG00000118473)
  effect in renormalizing the translational profile of the gene: − (− = <0.9)
Gene SH3BGR (ENSG00000185437)
  effect in renormalizing the translational profile of the gene: − (− = <0.9)
Gene SHC3 (ENSG00000148082)
  effect in renormalizing the translational profile of the gene: − (− = <0.9)
Gene SLC2A12 (ENSG00000146411)
  effect in renormalizing the translational profile of the gene: − (− = <0.9)
Gene SLC7A7 (ENSG00000155465)
  effect in renormalizing the translational profile of the gene: − (− = <0.9)
Gene SLC15A3 (ENSG00000110446)
  effect in renormalizing the translational profile of the gene: − (− = <0.9)
Gene SLC25A6 (ENSG00000169100)
  effect in renormalizing the translational profile of the gene: − (− = <0.9)
Gene SLC40A1 (ENSG00000138449)
  effect in renormalizing the translational profile of the gene: − (− = <0.9)
Gene SMO (ENSG00000128602)
  effect in renormalizing the translational profile of the gene: − (− = <0.9)
Gene SNRPA (ENSG00000077312)
  effect in renormalizing the translational profile of the gene: − (− = <0.9)
Gene SOX5 (ENSG00000134532)
  effect in renormalizing the translational profile of the gene: − (− = <0.9)
Gene SOX6 (ENSG00000110693)
  effect in renormalizing the translational profile of the gene: − (− = <0.9)
Gene SPATA6 (ENSG00000132122)
  effect in renormalizing the translational profile of the gene: + (+ = 0.9 to 1.5)
Gene STAMBPL1 (ENSG00000138134)
  effect in renormalizing the translational profile of the gene: − (− = <0.9)
Gene STS (ENSG00000101846)
  effect in renormalizing the translational profile of the gene: − (− = <0.9)
Gene SYNE2 (ENSG00000054654)
  effect in renormalizing the translational profile of the gene: − (− = <0.9)
Gene TAF1D (ENSG00000166012)
  effect in renormalizing the translational profile of the gene: − (− = <0.9)
Gene TDG (ENSG00000139372)
  effect in renormalizing the translational profile of the gene: − (− = <0.9)
Gene TEN1 (ENSG00000257949)
  effect in renormalizing the translational profile of the gene: − (− = <0.9)
Gene TET2 (ENSG00000168769)
  effect in renormalizing the translational profile of the gene: − (− = <0.9)
Gene TET3 (ENSG00000187605)
  effect in renormalizing the translational profile of the gene: − (− = <0.9)
Gene TGFBI (ENSG00000120708)
  effect in renormalizing the translational profile of the gene: − (− = <0.9)
Gene THBS3 (ENSG00000169231)
  effect in renormalizing the translational profile of the gene: + (+ = 0.9 to 1.5)
Gene THG1L (ENSG00000113272)
  effect in renormalizing the translational profile of the gene: − (− = <0.9)
Gene TIMM9 (ENSG00000100575)
  effect in renormalizing the translational profile of the gene: − (− = <0.9)
Gene TKT (ENSG00000163931)
  effect in renormalizing the translational profile of the gene: − (− = <0.9)
Gene TMTC1 (ENSG00000133687)
  effect in renormalizing the translational profile of the gene: − (− = <0.9)
Gene TOMM7 (ENSG00000196683)
  effect in renormalizing the translational profile of the gene: − (− = <0.9)
Gene TOP2A (ENSG00000131747)
  effect in renormalizing the translational profile of the gene: − (− = <0.9)
Gene TPGS1 (ENSG00000141933)
  effect in renormalizing the translational profile of the gene: − (− = <0.9)
Gene TPM2 (ENSG00000198467)
  effect in renormalizing the translational profile of the gene: − (− = <0.9)
Gene TPT1 (ENSG00000133112)
  effect in renormalizing the translational profile of the gene: − (− = <0.9)
Gene TRERF1 (ENSG00000124496)
  effect in renormalizing the translational profile of the gene: − (− = <0.9)
Gene UBA52 (ENSG00000221983)
  effect in renormalizing the translational profile of the gene: − (− = <0.9)
Gene UQCRB (ENSG00000156467)
  effect in renormalizing the translational profile of the gene: − (− = <0.9)
Gene UTRN (ENSG00000152818)
  effect in renormalizing the translational profile of the gene: − (− = <0.9)
Gene VIM (ENSG00000026025)
  effect in renormalizing the translational profile of the gene: − (− = <0.9)
Gene ZNF581 (ENSG00000171425)
  effect in renormalizing the translational profile of the gene: − (− = <0.9)
Gene ZNF608 (ENSG00000168916)
  effect in renormalizing the translational profile of the gene: − (− = <0.9)

Source: patent US9993494B2, “Compositions and methods for treating fibrotic disease” (eFFECTOR Therapeutics, Inc., priority 2014, dated 2018)
